Results on 3 molecules are retold here after patent publication US10400285B2, “DDX43 as a biomarker of resistance to MEK1/2 inhibitors” (Memorial Sloan-Kettering Cancer Center, priority 2013, dated 2019).

For the assay, the system named is Res-Omm1.3 and Res-Mel270 cells. The assay can be described thus: Cell viability assay (CCK8), MEKi-resistant cells. Format: cell-based. Here is the method: Cells were plated in 96-well plates, and treated with the indicated concentrations of drugs. […] Cell viability is expressed as a percentage of untreated cells.
To explore mechanisms of drug resistance, MEKi-resistant GNAQ-mutant cell lines were generated by exposing the cells to increasing concentrations of selumetinib for at least four weeks and routinely grown in 1 μM selumetinib, without clonal selection. After continuous exposure, the cell lines Res-Omm1.3 and Res-Mel270 became resistant to selumetinib compared to their parental cells Omm1.3 and Mel270 (FIG. 2A, B).

As to `NC1(c2ccc(-c3nc4ccn5c(=O)[nH]nc5c4cc3-c3ccccc3)cc2)CCC1` [MK2206], the “sensitivity to AKTi when combined with MEKi” value (MK2206 with selumetinib, FIG. 6) is “sustained”. Besides, the “cell viability with AKTi compared to the parental lines” value (increasing concentrations of MK2206, FIG. 6) was “Decreased viability”. With `O=C(NOC[C@H](O)CO)c1ccc(F)c(F)c1Nc1ccc(I)cc1F` [PD0325901], the “cell viability: resistance to MEK inhibitor compared to parental cells” value (increasing doses, 4 days, FIG. 2A, B and FIG. 7) is reported as “cross resistance”. For `Cn1cnc2c(F)c(Nc3ccc(Br)cc3Cl)c(C(=O)NOCCO)cc21` [selumetinib], the “IC50 of resistant cells relative to their sensitive counterparts” value (Res-Omm1.3 and Res-Mel270 vs parental Omm1.3 and Mel270, cell viability) came to 10 fold.
